Results reported in US12410171B2, “Tropomyosin receptor kinase (TRK) degradation compounds and methods of use” (Cullgen (Shanghai), Inc., priority 2020, dated 2025).

Molecular target: T1, TPM3-TRKA fusion protein (Homo sapiens, UniProt P04629)
T1 construct: The resulted chimeric proteins always retain the kinase domain of TRK proteins; TPM3 (fusion partner, N-terminal part of tropomyosin alpha-3, P06753); endogenous in cells; host or cells: KM12 colon cancer cells; the other entry of the earlier key: TPM3 (P06753, Tropomyosin alpha-3 chain)
Test: TPM3-TRKA fusion protein levels in KM12 cells (Western blot)
Type: cell-based
Conditions: for percent degradation of TPM3-TRKA protein at 0.01 µM: 16 h, TPM3-TRKA degradation in KM12 cells at 10 nM compound, category of percentage degradation, read-out: Degradation (at 10 nM)
Procedure, shortened: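 KM12 colon cancer cells were treated with DMSO or compounds at 0.1–100 nM, 0.4–30 nM or other stated concentrations for 4, 8–16 or 16 h. RIPA lysates were BCA-normalized and resolved by SDS-PAGE. TPM3-TRKA was detected by chemiluminescent Western blot, with bands quantified by densitometry.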

T1 sequence (P04629 with tags, fused parts or gaps): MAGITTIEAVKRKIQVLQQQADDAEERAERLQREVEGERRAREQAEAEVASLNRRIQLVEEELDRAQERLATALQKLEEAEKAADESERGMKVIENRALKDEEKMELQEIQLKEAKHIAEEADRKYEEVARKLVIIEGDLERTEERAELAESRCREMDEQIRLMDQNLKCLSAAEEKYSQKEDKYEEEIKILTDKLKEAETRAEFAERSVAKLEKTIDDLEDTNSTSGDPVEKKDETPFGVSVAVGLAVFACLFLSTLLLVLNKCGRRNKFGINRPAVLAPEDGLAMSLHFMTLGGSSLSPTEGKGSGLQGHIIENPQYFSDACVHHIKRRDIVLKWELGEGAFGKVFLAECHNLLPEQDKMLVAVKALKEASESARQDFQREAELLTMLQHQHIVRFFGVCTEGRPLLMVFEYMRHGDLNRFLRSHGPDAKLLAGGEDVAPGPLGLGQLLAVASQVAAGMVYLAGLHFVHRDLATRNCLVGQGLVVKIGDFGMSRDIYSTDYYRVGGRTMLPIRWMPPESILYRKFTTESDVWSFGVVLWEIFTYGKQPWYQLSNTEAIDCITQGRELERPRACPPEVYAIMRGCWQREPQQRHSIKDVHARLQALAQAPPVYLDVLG

SMILES | percent degradation of TPM3-TRKA protein at 0.01 µM | TPM3-TRKA protein levels (KM12 cells, 100 nM, indicated incubation time, Western blot (FIG. 2))
O=C1CCC(N2C(=O)c3cccc(NCCOCCC(=O)N4CCN(c5ccc(C(=O)Nc6n[nH]c7ccc(Cc8cc(F)cc(F)c8)cc67)c(NC6CCOCC6)c5)CC4)c3C2=O)C(=O)N1 (stereo not shown) [CPD-030, N-(5-(3,5-Difluorobenzyl)-1H-indazol-3-yl)-4-(4-(3-(2-((2-(2,6-dioxopiperidin-3-yl)-1,3-dioxoisoindolin-4-yl)amino)ethoxy)propanoyl)piperazin-1-yl)-2-((tetrahydro-2H-pyran-4-yl)amino)benzamide] | > 80% | 
O=C(CN1CCN(c2ccc(C(=O)Nc3n[nH]c4ccc(Cc5cc(F)cc(F)c5)cc34)c(NC3CCOCC3)c2)CC1)NCCCCCNc1cccc2c1C(=O)N(C1CCC(=O)NC1=O)C2=O (stereo not shown) [TR-149, N-(5-(3,5-Difluorobenzyl)-1H-indazol-3-yl)-4-(4-(2-((5-((2-(2,6-dioxopiperidin-3-yl)-1,3-dioxoisoindolin-4-yl)amino)pentyl)amino)-2-oxoethyl)piperazin-1-yl)-2-((tetrahydro-2H-pyran-4-yl)amino)benzamide] | > 80% | 
O=C1CCC(N2C(=O)c3cccc(NCCOCCC(=O)N4CCN(c5cccc(-c6cnc7ccc(N8CCC[C@@H]8c8cccc(F)c8)nn67)n5)CC4)c3C2=O)C(=O)N1 (stereo partly drawn) [CPD-027, 2-(2,6-Dioxopiperidin-3-yl)-4˜ ((2-(3-(4˜ (6-(6-((R)-2-(3-fluorophenyl)pyrrolidin-1-yl)imidazo[1,2-b]pyridazin-3-yl)pyridin-2-yl)piperazin-1-yl)-3-oxopropoxy)ethyl)amino) isoindoline-1,3-dione] | > 80% | rapidly reduced TPM3-TRKA protein levels
O=C1CCC(N2Cc3cc(C#CCN4CCN(c5cccc(-c6cnc7ccc(N8CCC[C@@H]8c8cccc(F)c8)nn67)n5)CC4)ccc3C2=O)C(=O)N1 (stereo partly drawn) [TR-188, 3-(5-(3-(4-(6-(6-((R)-2-(3-Fluorophenyl)pyrrolidin-1-yl)imidazo[1,2-b]pyridazin-3-yl)pyridin-2-yl)piperazin-1-yl)prop-1-yn-1-yl)-1-oxoisoindolin-2-yl)piperidine-2,6-dione] | > 80% | 
Cc1ncsc1-c1ccc(CNC(=O)[C@@H]2C[C@@H](O)CN2C(=O)[C@@H](NC(=O)CCCCCCCCC(=O)N2CCN(c3ccc(C(=O)Nc4n[nH]c5ccc(Cc6cc(F)cc(F)c6)cc45)c(NC4CCOCC4)c3)CC2)C(C)(C)C)cc1 [CPD-034, (28,4R)-1-((S)-2-(10-(4-(4-((5-(3,5-Difluorobenzyl)-1H-indazol-3-yl)carbamoyl)-3-((tetrahydro-2H-pyran-4-yl)amino)phenyl)piperazin-1-yl)-10-oxodecanamido)-3,3-dimethylbutanoyl)-4-hydroxy-N-(4-(4-methylthiazol-5-yl)benzyl)pyrrolidine-2-carboxamide] | < 50% | 
O=C1CCC(N2C(=O)c3ccc(NCCOCCOCCN4CCN(c5cccc(-c6cnc7ccc(N8CCC[C@H]8c8cccc(F)c8)nn67)n5)CC4)cc3C2=O)C(=O)N1 (stereo partly drawn) [TR-177, 2-(2,6-Dioxopiperidin-3-yl)-5-((2-(2-(2-(4-(6-(6-((S)-2-(3-fluorophenyl)pyrrolidin-1-yl)imidazo[1,2-b]pyridazin-3-yl)pyridin-2-yl)piperazin-1-yl)ethoxy)ethoxy)ethyl)amino) isoindoline-1,3-dione] | > 80% | 
O=C1CCC(N2Cc3cc(NCC4CCN(c5cccc(-c6cnc7ccc(N8CCC[C@@H]8c8cccc(F)c8)nn67)n5)CC4)ccc3C2=O)C(=O)N1 (stereo partly drawn) [TR-218, 3-(5-(((1-(6-(6-((R)-2-(3-fluorophenyl)pyrrolidin-1-yl)imidazo[1,2-b]pyridazin-3-yl)pyridin-2-yl)piperidin-4-yl)methyl)amino)-1-oxoisoindolin-2-yl)piperidine-2,6-dione] | 50 to 80% | 
O=C1CCC(N2C(=O)c3ccc(NCCOCCN4CCN(c5cccc(-c6cnc7ccc(N8CCC[C@@H]8c8cccc(F)c8)nn67)n5)CC4)cc3C2=O)C(=O)N1 (stereo partly drawn) [TR-176, 2-(2,6-Dioxopiperidin-3-yl)-5-((2-(2-(4-(6-(6-((R)-2-(3-fluorophenyl)pyrrolidin-1-yl)imidazo[1,2-b]pyridazin-3-yl)pyridin-2-yl)piperazin-1-yl)ethoxy)ethyl)amino) isoindoline-1,3-dione] | > 80% | 
O=C1CCC(N2C(=O)c3ccc(NCCOCCOCCOCCOCCOCCC(=O)N4CCN(c5ccc(C(=O)Nc6n[nH]c7ccc(Cc8cc(F)cc(F)c8)cc67)c(NC6CCOCC6)c5)CC4)cc3C2=O)C(=O)N1 (stereo not shown) [TR-137, N-(5-(3,5-Difluorobenzyl)-1H-indazol-3-yl)-4-(4-(1-((2-(2,6-dioxopiperidin-3-yl)-1,3-dioxoisoindolin-5-yl)amino)-3,6,9, 12, 15-pentaoxaoctadecan-18-oyl)piperazin-1-yl)-2-((tetrahydro-2H-pyran-4-yl)amino)benzamide] | > 80% | 

Continued, values first:

percent degradation of TPM3-TRKA protein at 0.01 µM | TPM3-TRKA protein levels (KM12 cells, 100 nM, indicated incubation time, Western blot (FIG. 2)) | SMILES
> 80% |  | O=C(CN1CCN(c2cccc(-c3cnc4ccc(N5CCC[C@@H]5c5cccc(F)c5)nn34)n2)CC1)NCCOCCOCCOCCNc1cccc2c1C(=O)N(C1CCC(=O)NC1=O)C2=O (stereo partly drawn) [CPD-059, N-(2-(2-(2-(2-((2-(2,6-Dioxopiperidin-3-yl)-1,3-dioxoisoindolin-4-yl)amino)ethoxy)ethoxy)ethoxy)ethyl)-2-(4-(6-(6-((R)-2-(3-fluorophenyl)pyrrolidin-1-yl)imidazo[1,2-b]pyridazin-3-yl)pyridin-2-yl)piperazin-1-yl)acetamide]
50 to 80% |  | O=C1CCC(N2C[C@H](c3cccc(C#CCN4CCN(c5cccc(-c6cnc7ccc(N8CCC[C@@H]8c8cccc(F)c8)nn67)n5)CC4)c3)OC2=O)C(=O)N1 (stereo partly drawn) [TR-223, 3-((S)-5-(3-(3-(4-(6-(6-((R)-2-(3-fluorophenyl)pyrrolidin-1-yl)imidazo[1,2-b]pyridazin-3-yl)pyridin-2-yl)piperazin-1-yl)prop-1-yn-1-yl)phenyl)-2-oxooxazolidin-3-yl)piperidine-2,6-dione]
> 80% |  | O=C(CN1CCN(c2ccc(C(=O)Nc3n[nH]c4ccc(Cc5cc(F)cc(F)c5)cc34)c(NC3CCOCC3)c2)CC1)NCCCNc1ccc2c(c1)C(=O)N(C1CCC(=O)NC1=O)C2=O (stereo not shown) [TR-167, N-(5-(3,5-Difluorobenzyl)-1H-indazol-3-yl)-4-(4-(2-((3-((2-(2,6-dioxopiperidin-3-yl)-1,3-dioxoisoindolin-5-yl)amino)propyl)amino)-2-oxocthyl)piperazin-1-yl)-2-((tetrahydro-2H-pyran-4-yl)amino)benzamide]
> 80% |  | O=C(CN1CCN(c2ccc(C(=O)Nc3n[nH]c4ccc(Cc5cc(F)cc(F)c5)cc34)c(NC3CCOCC3)c2)CC1)NCCOCCOCCOCCOCCNc1ccc2c(c1)C(=O)N(C1CCC(=O)NC1=O)C2=O (stereo not shown) [TR-160, N-(5-(3,5-Difluorobenzyl)-1H-indazol-3-yl)-4-(4-(17-((2-(2,6-dioxopiperidin-3-yl)-1,3-dioxoisoindolin-S-yl)amino)-2-oxo-6,9,12,15-tetraoxa-3-azaheptadecyl)piperazin-1-yl)-2-((tetrahydro-2H-pyran-4-yl)amino)benzamide]
> 80% |  | O=C(CN1CCN(c2ccc(C(=O)Nc3n[nH]c4ccc(Cc5cc(F)cc(F)c5)cc34)c(NC3CCOCC3)c2)CC1)NCCCCNc1ccc2c(c1)C(=O)N(C1CCC(=O)NC1=O)C2=O (stereo not shown) [TR-156, N-(5-(3,5-Difluorobenzyl)-1H-indazol-3-yl)-4-(4-(2-((4-((2-(2,6-dioxopiperidin-3-yl)-1,3-dioxoisoindolin-S-yl)amino)butyl)amino)-2-oxoethyl)piperazin-1-yl)-2-((tetrahydro-2H-pyran-4-yl)amino)benzamide]
> 80% |  | O=C1CCC(N2C(=O)c3cccc(NCCOCCOCCC(=O)N4CCN(c5ccc(C(=O)Nc6n[nH]c7ccc(Cc8cc(F)cc(F)c8)cc67)c(NC6CCOCC6)c5)CC4)c3C2=O)C(=O)N1 (stereo not drawn) [CPD-032, N—(S-(3,5-Difluorobenzyl)-1H-indazol-3-yl)-4-(4-(3-(2-(2-((2-(2,6-dioxopiperidin-3-yl)-1,3-dioxoisoindolin-4-yl)amino)ethoxy)ethoxy)propanoyl)piperazin-1-yl)-2-((tetrahydro-2H-pyran-4-yl)amino)benzamide]
> 80% |  | O=C1CCC(N2C(=O)c3ccc(NCCOCCOCCOCCOCCOCCC(=O)N4CCN(c5cccc(-c6cnc7ccc(N8CCC[C@@H]8c8cccc(F)c8)nn67)n5)CC4)cc3C2=O)C(=O)N1 (stereo partly shown) [TR-116]
< 50% |  | Cc1ncsc1-c1ccc(CNC(=O)[C@@H]2C[C@@H](O)CN2C(=O)[C@@H](NC(=O)CCOCCOCCOCCC(=O)N2CCN(c3ccc(C(=O)Nc4n[nH]c5ccc(Cc6cc(F)cc(F)c6)cc45)c(NC4CCOCC4)c3)CC2)C(C)(C)C)cc1 [CPD-039, (28,4R)-1-((S)-2-(tert-butyl)-16-(4-(4-((5-(3,5-Difluorobenzyl)-1H-indazol-3-yl)carbamoyl)-3-((tetrahydro-2H-pyran-4-yl)amino)phenyl)piperazin-1-yl)-4,16-dioxo-7,10,13-trioxa-3-azahexadecanoyl)-4-hydroxy-N-(4-(4-methylthiazol-5-yl)benzyl)pyrrolidine-2-carboxamide]
> 80% |  | O=C(CN1CCN(c2ccc(C(=O)Nc3n[nH]c4ccc(Cc5cc(F)cc(F)c5)cc34)c(NC3CCOCC3)c2)CC1)NCCOCCOCCOCCNc1ccc2c(c1)C(=O)N(C1CCC(=O)NC1=O)C2=O (stereo not drawn) [TR-163, N—(S-(3,5-Difluorobenzyl)-1H-indazol-3-yl)-4-(4-(14-((2-(2,6-dioxopiperidin-3-yl)-1,3-dioxoisoindolin-5-yl)amino)-2-oxo-6,9,12-trioxa-3-azatetradecyl)piperazin-1-yl)-2˜ ((tetrahydro-2H-pyran-4-yl)amino)benzamide]
